Measurements: patent publication US9593107B2, “Dihydroquinoline-2-one derivatives” (Hoffmann-La Roche Inc., priority 2014, dated 2017)

Tests used:
human CYP11B2 = molecular target: T1, human CYP11B2 (Homo sapiens, UniProt P19099); experiment: G-402 cellular enzyme assay, human CYP11B2 (aldosterone release, HTRF); type: cell-based; settings: G-402 cells expressing human CYP11B2; 1 μM Deoxycorticosterone
T1 construct: expressed in transfected cells
T1 sequence (P19099 25-503): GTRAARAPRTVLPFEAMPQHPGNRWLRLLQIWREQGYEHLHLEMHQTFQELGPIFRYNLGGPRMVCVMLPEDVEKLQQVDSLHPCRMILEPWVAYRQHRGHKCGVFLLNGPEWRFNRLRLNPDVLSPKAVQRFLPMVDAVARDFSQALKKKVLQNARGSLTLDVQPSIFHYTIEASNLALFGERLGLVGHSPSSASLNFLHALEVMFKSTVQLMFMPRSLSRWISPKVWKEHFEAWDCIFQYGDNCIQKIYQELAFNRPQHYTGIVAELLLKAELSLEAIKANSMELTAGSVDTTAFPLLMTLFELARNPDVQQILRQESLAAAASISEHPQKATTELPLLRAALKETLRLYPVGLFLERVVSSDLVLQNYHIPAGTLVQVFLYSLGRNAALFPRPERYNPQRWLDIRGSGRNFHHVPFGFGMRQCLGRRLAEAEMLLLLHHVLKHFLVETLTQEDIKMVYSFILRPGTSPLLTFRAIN
Excerpt: (§1) Herein we identified the use of the G-402 cell line as a host cell to ectopically express (transiently or stably) enzymes of the CYP11 family. Specifically we developed stable G-402 cells expressing ectopically human CYP11B1, human CYP11B2, human CYP11A1, cynmolgus CYP11B1 or cynomolgus CYP11B2 enzyme activity. Importantly the identified cell line G-402 expresses co-factors (adrenodoxin and adrenodoxin reductase) important for the activity of the CYP11 family and no relevant enzyme activity of the CYP11 family (in comparison to H295R cells) was detected in these cells. Therefore the G-402 cell line is uniquely suited as a host cell for the ectopic expression of enzymes from the CYP11 family.
(§2) The expression plasmids contains the ORF for either human/cyno CYP11B1 or CYP11B2 under the control of a suitable promoter (CMV-promoter) and a suitable resistance marker (neomycin). Using standard techniques the expression plasmid is transfected into G-402 cells and these cells are then selected for expressing the given resistance markers. Individual cell-clones are then selected and assessed for displaying the desired enzymatic activity using 11-Deoxycorticosterone (Cyp11B2) or 11-Deoxycortisol (Cyp11B1) as a substrate.
(§3) G-402 cells expressing CYP11 constructs were established as described above and maintained in McCoy's 5a Medium Modified, ATCC Catalog No. 30-2007 containing 10% FCS and 400 μg/ml G418 (Geneticin) at 37° C. under an atmosphere of 5% CO2/95% air.
(§4) Cellular enzyme assays were performed in DMEM/F12 medium containing 2.5% charcoal treated FCS and appropriate concentration of substrate (0.3-10 uM 11-Deoxycorticosterone, 11-Deoxycortisol or Corticosterone). For assaying enzymatic activity, cells were plated onto 96 well plates and incubated for 16 h. An aliquot of the supernatant is then transferred and analyzed for the concentration of the expected product (Aldosterone for CYP11B2; Cortisol for CYP11B1). The concentrations of these steroids can be determined using HTRF assays from CisBio analyzing either Aldosterone or Cortisol.
(§5) Inhibition of the release of produced steroids can be used as a measure of the respective enzyme inhibition by test compounds added during the cellular enzyme assay. The dose dependent inhibition of enzymatic activity by a compound is calculated by means of plotting added inhibitor concentrations (x-axes) vs. measured steroid/product level (y-axes). The inhibition is then calculated by fitting the following 4-parameter sigmoidal function (Morgan-Mercer-Flodin (MMF) model) to the raw data points using the least squares method:
(§6) [formula] wherein, A is the maximum y value, B is the EC50 factor determined using XLFit, C is the minimum y value and D is the slope value.
(§7) EC50 values for compounds claimed herein were tested with the G402-based assay system described. Cyp11B2 enzyme activity was tested in presence of 1 μM Deoxycorticosterone and variable amounts of inhibitors; Cyp11B1 enzyme activity was tested in presence of 1 μM Deoxycortisol and variable amounts of inhibitors.

human CYP11B1 = molecular target: T2, human CYP11B1 (Homo sapiens, UniProt P15538); experiment: G-402 cellular enzyme assay, human CYP11B1 (cortisol release, HTRF); type: cell-based; settings: G-402 cells expressing human CYP11B1; 1 μM Deoxycortisol
T2 construct: expressed in transfected cells
T2 sequence (P15538 25-503): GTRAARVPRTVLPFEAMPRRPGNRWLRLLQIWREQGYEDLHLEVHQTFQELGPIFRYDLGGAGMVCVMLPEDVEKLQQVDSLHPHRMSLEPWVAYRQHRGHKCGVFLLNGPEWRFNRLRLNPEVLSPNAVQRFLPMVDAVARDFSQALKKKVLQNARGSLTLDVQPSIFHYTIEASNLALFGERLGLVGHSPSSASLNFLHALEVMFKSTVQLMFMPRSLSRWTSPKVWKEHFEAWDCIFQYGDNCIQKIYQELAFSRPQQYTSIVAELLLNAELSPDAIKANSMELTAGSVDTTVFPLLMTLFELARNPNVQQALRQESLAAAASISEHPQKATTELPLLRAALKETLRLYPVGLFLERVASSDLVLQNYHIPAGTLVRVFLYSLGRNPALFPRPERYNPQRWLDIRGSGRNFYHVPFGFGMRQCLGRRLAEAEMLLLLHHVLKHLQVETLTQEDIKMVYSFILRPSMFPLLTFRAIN
Excerpt: as §1, §2, §3, §4, §5, §6, §7

CN1C(=O)CCc2cc(-c3cncc(Cn4c(=O)sc5ccccc54)c3)ccc21 [Example 1, 1-Methyl-6-[5-(2-oxo-benzothiazol-3-ylmethyl)-pyridin-3-yl]-3,4-dihydro-1H-quinolin-2-one]
EC50 (human CYP11B2): 1.4 nM | EC50 (human CYP11B1): 177 nM

CN1C(=O)CCc2cc(-c3cncc(Cn4cc(F)ccc4=O)c3)ccc21 [Example 2, 6-[5-(5-Fluoro-2-oxo-2H-pyridin-1-ylmethyl)-pyridin-3-yl]-1-methyl-3,4-dihydro-1H-quinolin-2-one]
EC50 (human CYP11B2): 18.5 nM | EC50 (human CYP11B1): 935 nM

CN1C(=O)CCc2cc(-c3cncc(Cn4ccsc4=O)c3)ccc21 [Example 3, 1-Methyl-6-[5-(2-oxo-thiazol-3-ylmethyl)-pyridin-3-yl]-3,4-dihydro-1H-quinolin-2-one]
EC50 (human CYP11B2): 3.6 nM | EC50 (human CYP11B1): 275 nM

CN1C(=O)CCc2cc(-c3cncc(Cn4cccc(Cl)c4=O)c3)ccc21 [Example 4, 6-[5-(3-Chloro-2-oxo-2H-pyridin-1-ylmethyl)-pyridin-3-yl]-1-methyl-3,4-dihydro-1H-quinolin-2-one]
EC50 (human CYP11B2): 29.3 nM | EC50 (human CYP11B1): 1220 nM

CN1C(=O)CCc2cc(-c3cncc(Cn4cc(C(F)(F)F)cc(F)c4=O)c3)ccc21 [Example 5, 6-[5-(3-Fluoro-2-oxo-5-trifluoromethyl-2H-pyridin-1-ylmethyl)-pyridin-3-yl]-1-methyl-3,4-dihydro-1H-quinolin-2-one]
EC50 (human CYP11B2): 13.2 nM | EC50 (human CYP11B1): 1080 nM

CN1C(=O)CCc2cc(-c3cncc(Cn4cccc(F)c4=O)c3)ccc21 [Example 6, 6-[5-(3-Fluoro-2-oxo-2H-pyridin-1-ylmethyl)-pyridin-3-yl]-1-methyl-3,4-dihydro-1H-quinolin-2-one]
EC50 (human CYP11B2): 32.7 nM | EC50 (human CYP11B1): 4070 nM

Cc1cccc(=O)n1Cc1cncc(-c2ccc3c(c2)CCC(=O)N3C)c1 [Example 7, 1-Methyl-6-[5-(6-methyl-2-oxo-2H-pyridin-1-ylmethyl)-pyridin-3-yl]-3,4-dihydro-1H-quinolin-2-one]
EC50 (human CYP11B2): 8.8 nM | EC50 (human CYP11B1): 820 nM

Cc1ccn(Cc2cncc(-c3ccc4c(c3)CCC(=O)N4C)c2)c(=O)c1 [Example 8, 1-Methyl-6-[5-(4-methyl-2-oxo-2H-pyridin-1-ylmethyl)-pyridin-3-yl]-3,4-dihydro-1H-quinolin-2-one]
EC50 (human CYP11B2): 27 nM | EC50 (human CYP11B1): 1050 nM

CN1C(=O)CCc2cc(-c3cncc(Cn4cc(Cl)ccc4=O)c3)ccc21 [Example 9, 6-[5-(5-Chloro-2-oxo-2H-pyridin-1-ylmethyl)-pyridin-3-yl]-1-methyl-3,4-dihydro-1H-quinolin-2-one]
EC50 (human CYP11B2): 10.5 nM | EC50 (human CYP11B1): 516 nM

CN1C(=O)CCc2cc(-c3cncc(Cn4ccccc4=O)c3)ccc21 [Example 10, 1-Methyl-6-[5-(2-oxo-2H-pyridin-1-ylmethyl)-pyridin-3-yl]-3,4-dihydro-1H-quinolin-2-one]
EC50 (human CYP11B2): 29 nM | EC50 (human CYP11B1): 1230 nM

CN1C(=O)CCc2cc(-c3cncc(Cn4cccc(C(F)(F)F)c4=O)c3)ccc21 [Example 11, 1-Methyl-6-[5-(2-oxo-3-trifluoromethyl-2H-pyridin-1-ylmethyl)-pyridin-3-yl]-3,4-dihydro-1H-quinolin-2-one]
EC50 (human CYP11B2): 18.1 nM | EC50 (human CYP11B1): 738 nM

Cc1nccc(=O)n1Cc1cncc(-c2ccc3c(c2)CCC(=O)N3C)c1 [Example 12, 1-Methyl-6-[5-(2-methyl-6-oxo-6H-pyrimidin-1-ylmethyl)-pyridin-3-yl]-3,4-dihydro-1H-quinolin-2-one]
EC50 (human CYP11B2): 7.4 nM | EC50 (human CYP11B1): 256 nM

CN1C(=O)CCc2cc(-c3cncc(Cn4cccnc4=O)c3)ccc21 [Example 13, 1-Methyl-6-[5-(2-oxo-2H-pyrimidin-1-ylmethyl)-pyridin-3-yl]-3,4-dihydro-1H-quinolin-2-one]
EC50 (human CYP11B2): 89.2 nM | EC50 (human CYP11B1): 5570 nM

CN1C(=O)CCc2cc(-c3cncc(Cn4ccc(C#N)cc4=O)c3)ccc21 [Example 14, 1-[5-(1-Methyl-2-oxo-1,2,3,4-tetrahydro-quinolin-6-yl)-pyridin-3-ylmethyl]-2-oxo-1,2-dihydro-pyridine-4-carbonitrile]
EC50 (human CYP11B2): 8.8 nM | EC50 (human CYP11B1): 356 nM

CN1C(=O)CCc2cc(-c3cncc(Cn4cc(C(F)(F)F)ccc4=O)c3)ccc21 [Example 15, 1-Methyl-6-[5-(2-oxo-5-trifluoromethyl-2H-pyridin-1-ylmethyl)-pyridin-3-yl]-3,4-dihydro-1H-quinolin-2-one]
EC50 (human CYP11B2): 19.6 nM | EC50 (human CYP11B1): 680 nM

CN1C(=O)CCc2cc(-c3cncc(Cn4cc(C#N)ccc4=O)c3)ccc21 [Example 16, 1-[5-(1-Methyl-2-oxo-1,2,3,4-tetrahydro-quinolin-6-yl)-pyridin-3-ylmethyl]-6-oxo-1,6-dihydro-pyridine-3-carbonitrile]
EC50 (human CYP11B2): 67.3 nM | EC50 (human CYP11B1): 2420 nM

CN1C(=O)CCc2cc(-c3cncc(Cn4c(Cl)cccc4=O)c3)ccc21 [Example 17, 6-[5-(6-Chloro-2-oxo-2H-pyridin-1-ylmethyl)-pyridin-3-yl]-1-methyl-3,4-dihydro-1H-quinolin-2-one]
EC50 (human CYP11B2): 2.2 nM | EC50 (human CYP11B1): 363 nM

CN1C(=O)CCc2cc(-c3cncc(Cn4c(F)cccc4=O)c3)ccc21 [Example 18, 6-[5-(6-Fluoro-2-oxo-2H-pyridin-1-ylmethyl)-pyridin-3-yl]-1-methyl-3,4-dihydro-1H-quinolin-2-one]
EC50 (human CYP11B2): 4.1 nM | EC50 (human CYP11B1): 172 nM

CN1C(=O)CCc2cc(-c3cncc(Cn4cccc(F)c4=O)c3)c(F)cc21 [Example 19, 7-Fluoro-6-[5-(3-fluoro-2-oxo-2H-pyridin-1-ylmethyl)-pyridin-3-yl]-1-methyl-3,4-dihydro-1H-quinolin-2-one]
EC50 (human CYP11B2): 0.5 nM | EC50 (human CYP11B1): 23.8 nM

Cc1ccn(Cc2cncc(-c3cc4c(cc3F)N(C)C(=O)CC4)c2)c(=O)c1 [Example 20, 7-Fluoro-1-methyl-6-[5-(4-methyl-2-oxo-2H-pyridin-1-ylmethyl)-pyridin-3-yl]-3,4-dihydro-1H-quinolin-2-one]
EC50 (human CYP11B2): 11.6 nM | EC50 (human CYP11B1): 506 nM

CN1C(=O)CCc2cc(-c3cncc(Cn4cc(Cl)ccc4=O)c3)c(F)cc21 [Example 21, 6-[5-(5-Chloro-2-oxo-2H-pyridin-1-ylmethyl)-pyridin-3-yl]-7-fluoro-1-methyl-3,4-dihydro-1H-quinolin-2-one]
EC50 (human CYP11B2): 15.1 nM | EC50 (human CYP11B1): 569 nM

CN1C(=O)CCc2cc(-c3cncc(Cn4c(Cl)cccc4=O)c3)c(F)cc21 [Example 22, 6-[5-(6-Chloro-2-oxo-2H-pyridin-1-ylmethyl)-pyridin-3-yl]-7-fluoro-1-methyl-3,4-dihydro-1H-quinolin-2-one]
EC50 (human CYP11B2): 0.2 nM | EC50 (human CYP11B1): 7.1 nM

Cc1cccc(=O)n1Cc1cncc(-c2cc3c(cc2F)N(C)C(=O)CC3)c1 [Example 23, 7-Fluoro-1-methyl-6-[5-(6-methyl-2-oxo-2H-pyridin-1-ylmethyl)-pyridin-3-yl]-3,4-dihydro-1H-quinolin-2-one]
EC50 (human CYP11B2): 12.5 nM | EC50 (human CYP11B1): 3130 nM
